Assay results: patent publication US20100086931A1, “METHOD FOR ASSAYING ACTION OF ANTITUMOR AGENT USING DECREASE IN GENE EXPRESSION LEVEL AS INDEX” (Eisai R&D Management Co., Ltd., priority 2007, published 2010)

Test system: peripheral blood mononuclear cells (PBMC)
Test: qPCR (TaqMan) measurement of mRNA expression in PBMC treated with compound A
Assay type: cell-based, human
Settings: untreated cells = 1, corrected by 18S rRNA
Text: Since it is not easy to obtain a cancer tissue clinically, the measurement of the marker in hemocytes readily obtainable in peripheral blood would be more useful. Specifically peripheral blood was taken from three normal individuals (volunteers) and peripheral blood mononuclear cells were purified and treated with compound A, followed by measurement of change in expression of the gene (mRNA) by qPCR.
RNA samples were first prepared in accordance with the steps described in Example 2 (1) and (2).
Subsequently RNA was prepared to 30 ng/μl and cDNA was synthesized by using TaqMan Reverse Transcription Reagents (Applied Biosystems). The expression level of SLC25A19, TRAPPC4, GTF2H1, Id1, EDN1, ZCCHC6, HNRPA2B1, and HSPA9B was amplified with TaqMan Gene Expression Assays (catalog numbers below) (Applied Biosystems) as a probe by using TaqMan Universal PCR Master Mix (Applied Biosystems).
Reagents were prepared in accordance with the protocol, and measurement was carried out with ABI7900 (Applied Biosystems). Measured values were corrected by using the expression level of 18S rRNA (Hs99999901_s1, Applied Biosystems) as an internal control. The expression level of each gene was calculated with the expression level in the cells untreated with compound A as 1. […] In Table 3, for each gene evaluated, abbreviated name (Gene Symbol), accession number (Accession), alias name (Synonym), gene name (Gene Name), and the expression level upon treatment with varied concentration of E7107 (E7107 (nM)) were respectively shown.

## CCC(O)C(C)C1OC1CC(C)(O)/C=C/C=C(\C)C1OC(=O)CC(O)CCC(C)(O)C(OC(=O)N2CCN(C3CCCCCC3)CC2)/C=C/C1C (centres unmarked) [E7107, (8E,12E,14E)-7-((4-Cycloheptylpiperazin-1-yl)carbonyl)oxy-3,6,16,21-tetrahydroxy-6,10,12,16,20-pentamethyl-18,19-epoxytricosa-8,12,14-trien-11-olide]
3 nM
  EDN1 mRNA expression level (qPCR): 0.45
  GTF2H1 mRNA expression level (qPCR): 0.22
  HNRPA2B1 mRNA expression level (qPCR): 0.48
  HSPA9 mRNA expression level (qPCR): 0.39
  ID1 mRNA expression level (qPCR): 0.5
  SLC25A19 mRNA expression level (qPCR): 0.11
  TRAPPC4 mRNA expression level (qPCR): 0.12
  ZCCHC8 mRNA expression level (qPCR): 0.49
10 nM
  EDN1 mRNA expression level (qPCR): 0.2
  GTF2H1 mRNA expression level (qPCR): 0.07
  HNRPA2B1 mRNA expression level (qPCR): 0.29
  HSPA9 mRNA expression level (qPCR): 0.26
  ID1 mRNA expression level (qPCR): 0.15
  SLC25A19 mRNA expression level (qPCR): 0.02
  TRAPPC4 mRNA expression level (qPCR): 0.02
  ZCCHC8 mRNA expression level (qPCR): 0.19
30 nM
  EDN1 mRNA expression level (qPCR): 0.11
  GTF2H1 mRNA expression level (qPCR): 0.05
  HNRPA2B1 mRNA expression level (qPCR): 0.24
  HSPA9 mRNA expression level (qPCR): 0.17
  ID1 mRNA expression level (qPCR): 0.09
  SLC25A19 mRNA expression level (qPCR): 0.01
  TRAPPC4 mRNA expression level (qPCR): 0.01
